Common to all, as to assay type: cell-based, human
Assay [1] deals with G401 cells. The experiment in a line: Apoptosis assay (Annexin V/7AAD flow cytometry) in kidney MRT cell line. Conditions: G401 vs DMSO and vs SMARCB1-positive cell lines. As to the method: (§1) Similarly, G401, A498, 786-O, BT12, SW1783, and DAOY cells were plated into 6-well-plates (200,000 cells per well) and grown for 24 hours before 10 nM BTZ, 30 nM Carfilzomib (CFZ, from Active Biochemicals Co.), or DMSO as vehicle control was added to the cell culture media for another 24 hours. Subsequently, cells were carefully washed with PBS and dissociated by trypsinization. Aliquots of single cell suspensions containing 1×10^5 cells in 100 μL PBS were stained with AnnexinV-APC and 7AAD according to the manufacturer's instructions (BD Biosciences) for 15 min at RT. Subsequently, 400 μL of AnnexinV binding buffer was added (10 mM Hepes, 140 mM NaCl and 2.5 mM CaCl2), cell suspensions were placed on ice and immediately analyzed with a FACSCalibur flow cytometer (BD Biosciences). The data analysis was performed using the FlowJo software (Tree Star). For statistical analyses, an unpaired t-test was conducted using Prism 5.0 (GraphPad).
For orientation: In flow cytometry, cells or beads pass a laser one at a time.

Assay [2] concerns BT12 cells. Put plainly: Apoptosis assay (Annexin V/7AAD flow cytometry) in brain AT/RT cell line. Conditions: BT12 vs DMSO and vs SMARCB1-positive cell lines. As to the method:
as §1

For assay [3], the system named is eIF2alpha phosphorylation. The experiment in a line: Western blot of eIF2alpha phosphorylation upon thapsigargin ER stress induction. Conditions: three hour TG exposure. As to the method: Cells were harvested at 50-70% confluency, pelleted by centrifugation, and dissolved in RIPA buffer (10 mM Tris/HCl (pH 7.5), 1 mM EDTA, 1% Triton X-100, 0.1% SDS, 0.1% sodium deoxycholate, 100 mM NaCl) supplemented with protease inhibitors (2 mM PMSF and 1× Complete Mini, Roche). Supernatants were collected, protein concentrations were determined using the BCA assay (Pierce/Thermo Scientific), and proteins were separated in a 10% SDS-polyacrylamide gel. Western blotting followed standard protocols using nitrocellulose membranes (Amersham/GE Healthcare). Signal intensities were analyzed with ImageJ (http://rsb.info.nih.gov/ij/).
Antibodies used were: anti-BAF47 (SMARCB1/SNF5; BD Biosciences, San Diego, Calif.), anti-phospho-eIF2alpha (119A11; Cell Signaling), anti-beta actin-HRP (Abcam, Cambridge, UK).
The CHLA-02-ATRT cell line was obtained from ATCC and kept in neurosphere medium (DMEM/F12 (1:1) with Glutamax, B27, penicillin (100 units/mL), streptomycin (100 μg/mL; all from Invitrogen), HEPES (10 mmol/L), Partricin (0.5 μg/mL, Biochrom); insulin (20 μg/mL; Sigma Aldrich), recombinant human epidermal growth factor (EGF; 20 ng/mL), and rhFGFbasic (20 ng/mL; PAN Biotech)). The human malignant rhabdoid tumor cell line LM (provided by Rupert Handgretinger, Tuebingen, Germany) was kept according to Versteege et al. (Nature 1998). DAOY medulloblastoma cells (provided by Michael Grotzer, Zurich, Switzerland) were kept in EMEM (PAA) supplemented with 10% FBS (Biochrom), 2 mM glutamine, 100 units/mL Penicillin/Streptomycin (Invitrogen), and 2.5 μg/mL Amphotericin B (PAA). Hs683 glioma cell lines (provided by Matthias Simon, Bonn, Germany) were kept in DAOY medium with 1 mM sodium pyruvate, MEM non-essential amino acids, and MEM vitamin solution (all from Invitrogen). SW1783 glioblastoma cells (provided by Matthias Simon, Bonn, Germany) and BT12 AT/RT cells (provided by Michael Grotzer, Zurich, Switzerland) were kept in DMEM (1 g/l glucose) supplemented with 10% FBS (Biochrom), 2 mM glutamine, 100 units/ml Penicillin/Streptomycin (Invitrogen) and 2.5 μg/ml Amphotericin B (PAA).
MCF7-SNF5-KD#73 cells (Xu et al., 2010) were cultured in DMEM (4.5 g/L glucose, Invitrogen), 10% FBS (Tet System Approved, Clontech), 2 mM glutamine, and 100 units/mL Penicillin/Streptomycin (Invitrogen). For the knock-down of SMARCB1, tetracycline (1 μg/mL) was added on day 1 and 3, and cells harvested at day 4. At day 4, cells were treated with DTT (5 mM) or Thapsigargin (5 μM). 786-O and A-498 cells (both from Angelika Toelle, Charité Berlin, Germany), HepG2 cells (from Peter Nilsson-Ehle, Lund University, Sweden), and G401 (ATCC) were kept in RPMI1640 (PAA) supplemented with 10% FBS (Biochrom), 2 mM glutamine, 100 units/mL Penicillin/Streptomycin (Invitrogen), and 2.5 μg/mL Amphotericin B (PAA). A-204 (ATCC) were grown in McCoy's 5a modified medium supplemented with 10% FBS (Biochrom), 100 units/mL Penicillin/Streptomycin (Invitrogen), and 2.5 μg/mL Amphotericin B (PAA). All cells were kept in T75 tissue culture flasks (Techno Plastic Products).
Background: In western blotting, separated proteins are transferred to a membrane and probed.

Assay [4] deals with MCF7-SNF5-KD#73 cells. Put plainly: Apoptosis assay (Annexin V/7AAD flow cytometry) in tetracycline-induced SMARCB1 knock-down MCF7 cells. Conditions: 10 nM for 12 hours; Tet-induced SMARCB1 knock-down vs non-induced MCF7 cells. How it is done:
500,000 MCF7-SNF5-KD#73 cells (Xu et al., 2010) were plated into T75 tissue culture flasks (Techno Plastic Products). For knockdown experiments, tetracycline (1 μg/mL) was added on day 1 and day 3. In case of Bortezomib (BTZ)-treated cells, the drug (Santa Cruz Biotechnology, final concentration 10 nM) was added for 12 hours on day 4 (at 70-85% confluency).
as §1

Setting [5] is: 10 nM BTZ for 24 hours, listed as BTZ.

This note sets out measurements from patent US9429574B2, “Cancer therapies and methods” (priority 2011, dated 2016).

“Also recorded” adds a separate entry of the source.

In the case of `CC(C)C[C@H](NC(=O)[C@H](CCc1ccccc1)NC(=O)CN1CCOCC1)C(=O)N[C@@H](Cc1ccccc1)C(=O)N[C@@H](CC(C)C)C(=O)[C@@]1(C)CO1` [Carfilzomib], the “Apoptosis (Annexin V-positive and 7AAD-negative cells)” value in assay [1] (30 nM CFZ for 24 hours) and in assay [2] (30 nM CFZ for 24 hours) was “highest apoptosis; also recorded: increased apoptosis” each time.
For `C/C=C(/C)C(=O)O[C@H]1C(C)=C2[C@H]([C@@H]1OC(=O)CCCCCCC)[C@@](C)(OC(C)=O)C[C@H](OC(=O)CCC)[C@@]1(O)[C@H]2OC(=O)[C@@]1(C)O` [TG, Thapsigargin], the “Fold-change of β-actin-normalized phosphorylated eIF2alpha signal intensities between TSG-treated and untreated cells” value turned out to be 0.60 in assay [3] (786-O (SMARCB1-positive renal cell carcinoma)); 1.39 in assay [3] (A-204 (MRT, muscle origin, lacking SMARCB1)); 1.12 in assay [3] (A-498 (SMARCB1-positive renal cell carcinoma)); 5.89 in assay [3] (CHLA2 (AT/RT, lacking SMARCB1)); 0.77 in assay [3] (DAOY (SMARCB1-positive brain tumor)); 2.49 in assay [3] (G401 (MRT, kidney origin, lacking SMARCB1)). Moreover, the “Fold-change of β-actin-normalized phosphorylated eIF2alpha signal intensities between TSG-treated and untreated cells” value in assay [3] (HepG2 (SMARCB1-positive hepatocellular carcinoma)) came out at 0.56; in assay [3] (Hs683 (SMARCB1-positive brain tumor)), 0.81; in assay [3] (LM (MRT, liver origin, lacking SMARCB1)), 1.27; in assay [3] (SW1783 (SMARCB1-positive brain tumor)), 0.75.
As for `CC(C)C[C@H](NC(=O)[C@H](Cc1ccccc1)NC(=O)c1cnccn1)B(O)O` [Bortezomib, [(1R)-3-methyl-1-({(2S)-3-phenyl-2-[(pyrazin-2-ylcarbonyl)-amino]propanoyl}amino)butyl]boronic acid], the “Apoptosis (Annexin V-positive and 7AAD-negative cells)” value in assay [4] is on record as “increased apoptosis”; in assay [1] (10 nM BTZ for 24 hours) it was “increased apoptosis”; in assay [1] (setting [5]), “highest apoptosis”; in assay [2] (10 nM BTZ for 24 hours), “increased apoptosis”; in assay [2] (setting [5]) it was “highest apoptosis”.
